20 compounds from patent US20040116420A1 (priority 2001, published 2004) can be followed below.

Where only a bound is given, the exact number is not on record here.

The target of one series is T1, HSV-1 protease (Human herpesvirus 1, UniProt P10210).
T1 construct: 6xHis (N); made in house; host or cells: baculovirus expression system
The series is described as follows: Enzymatic assay for HSV-1 protease (assembly) inhibitor, fluorescence polarization. It is filed as biochemical. The settings on record: read-out: HSV-1 Enzyme inhibition IC50. The method, boiled down: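 Fluorescence polarization read-out: after avidin stop, cleavage of a biotinylated DTAF-labelled release-site peptide by recombinant N-His6 HSV-1 protease was compared with no-inhibitor wells. Enzyme and compound were preincubated 30 min, then substrate reacted 60 min, all at room temperature, pH 7.4 citrate buffer with TCEP.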

The subject of the next series is HSV-1. Nature of the series: Antiviral activity, HSV-1 in Vero cells, plaque method. The series is classed as cell-based. The settings on record: Human alphaherpesvirus 1, 20 hours, 90% inhibition of plaque formation. In a few lines: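 This is a virus-yield read-out. The culture medium was frozen at −80° C and thawed, and the plaques it formed were counted. It came from Vero monolayers infected with 50,000 pfu HSV-1 and then exposed to the compound for 20 h at 37° C. EC90 is the concentration inhibiting 90% of plaque formation relative to the untreated infected control.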

In a further series the test system is Vero cells. Nature of the series: Cytotoxicity, Vero cells, Alamar Blue. The series is classed as cell-based. As to conditions: 25 μM, 20 hours. The method, boiled down: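 Living-cell ratio versus untreated control was read by Alamar Blue absorbance after about 6 h of dye incubation. Before that, Vero cells had received 25 μM test compound in 2% FBS-DMEM for 20 hours at 37 °C under 5% CO2.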

T1 sequence (P10210 1-247): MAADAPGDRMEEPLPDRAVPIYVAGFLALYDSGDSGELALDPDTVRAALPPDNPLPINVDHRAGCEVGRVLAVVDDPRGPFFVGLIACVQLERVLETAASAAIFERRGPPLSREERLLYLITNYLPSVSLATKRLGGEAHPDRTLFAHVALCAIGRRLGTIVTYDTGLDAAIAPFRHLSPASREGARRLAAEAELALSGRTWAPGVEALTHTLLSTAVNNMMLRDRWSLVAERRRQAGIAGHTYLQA

Regarding `Cc1c(NC(=O)c2ccc(C(F)(F)F)cc2)ccc2nc(NC(C)(C)C(=O)N(C)CCc3ccccn3)oc(=O)c12` [Compound No.146, N-(5-Methyl-2-{1-methyl-1-[methyl-(2-pyridin-2-yl-ethyl)-carbamoyl]-ethylamino}-4-oxo-4H-benzo[d][1,3]oxazin-6-yl)-4-trifluoromethyl-benzamide], the IC50 on HSV-1 protease is 1200 nM. In the series on HSV-1, this compound showed an EC90 of 5.6 µM. Further, the “Cell viability (% of control)” value with Vero cells is 18.0%.

`Cc1c(NC(=O)c2ccccc2F)ccc2nc(NC(C)(C)C(=O)N(C)CCc3ccccn3)oc(=O)c12` [Compound No.147, 2-Fluoro-N-(5-methyl-2-{1-methyl-1-[methyl-(2-pyridin-2-yl-ethyl)-carbamoyl]-ethylamino}-4-oxo-4H-benzo[d][1,3]oxazin-6-yl)-benzamide]: the IC50 at HSV-1 protease was determined as 1600 nM. This compound gave an EC90 with HSV-1 of 10.2 µM. The “Cell viability (% of control)” value in the series on Vero cells was 70.2%.

Turning to `Cc1c(NC(=O)c2cccc(F)c2)ccc2nc(NC(C)(C)C(=O)N(C)CCc3ccccn3)oc(=O)c12` [Compound No.148, 3-Fluoro-N-(5-methyl-2-{1-methyl-1-[methyl-(2-pyridin-2-yl-ethyl)-carbamoyl]-ethylamino}-4-oxo-4H-benzo[d][1,3]oxazin-6-yl)-benzamide], the IC50 at HSV-1 protease was determined as 1500 nM. The same compound yielded an EC90 in the series on HSV-1 of 10.3 µM. In the series on Vero cells, the “Cell viability (% of control)” value was found to be 54.6%.

On to `Cc1c(NC(=O)c2ccc(F)cc2)ccc2nc(NC(C)(C)C(=O)N(C)CCc3ccccn3)oc(=O)c12` [Compound No.149, 4-Fluoro-N-(5-methyl-2-{1-methyl-1-[methyl-(2-pyridin-2-yl-ethyl)-carbamoyl]-ethylamino}-4-oxo-4H-benzo[d][1,3]oxazin-6-yl)-benzamide], for which the IC50 at HSV-1 protease was 1500 nM. The compound further displayed an EC90 with HSV-1 of 10.6 µM. In the series on Vero cells, the “Cell viability (% of control)” value is reported as 65.4%.

For the compound `COC(=O)c1ccc(C(=O)Nc2ccc3nc(NC(C)(C)C(=O)N(C)CCc4ccccn4)oc(=O)c3c2C)cc1` [Compound No.150, N-(5-Methyl-2-{1-methyl-1-[methyl-(2-pyridin-2-yl-ethyl)-carbamoyl]-ethylamino}-4-oxo-4H-benzo[d][1,3]oxazin-6-yl)-tetraphthalic acid methyl ester], the IC50 at HSV-1 protease came out at 1400 nM. Further, the 90% effect concentration (EC90) in the series on HSV-1 is 6.1 µM. In the series on Vero cells, the “Cell viability (% of control)” value amounted to 81.5%.

With `Cc1c(NC(=O)c2cccc(Cl)c2)ccc2nc(NC(C)(C)C(=O)N(C)CCc3ccccn3)oc(=O)c12` [Compound No.152, 3-Chloro-N-(5-methyl-2-{1-methyl-1-[methyl-(2-pyridin-2-yl-ethyl)-carbamoyl]-ethylamino}-4-oxo-4H-benzo[d][1,3]oxazin-6-yl)-benzamide], at HSV-1 protease, the IC50 was 1800 nM. Also, it took 6.3 µM to reach the 90% level with HSV-1 (EC90). Further, the “Cell viability (% of control)” value in the series on Vero cells amounted to 30.9%.

On to `Cc1c(NC(=O)c2ccc(Cl)cc2)ccc2nc(NC(C)(C)C(=O)N(C)CCc3ccccn3)oc(=O)c12` [Compound No.153, 4-Chloro-N-(5-methyl-2-{1-methyl-1-[methyl-(2-pyridin-2-yl-ethyl)-carbamoyl]-ethylamino}-4-oxo-4H-benzo[d][1,3]oxazin-6-yl)-benzamide], for which the IC50 at HSV-1 protease was determined as 2600 nM. Also, the 90% effect level with HSV-1 (EC90) was put at 6.2 µM. Besides, the “Cell viability (% of control)” value in the series with Vero cells was determined as 48.6%.

With `Cc1c(NC(=O)c2ccc(Br)cc2)ccc2nc(NC(C)(C)C(=O)N(C)CCc3ccccn3)oc(=O)c12` [Compound No.154, 4-Bromo-N-(5-methyl-2-{1-methyl-1-[methyl-(2-pyridin-2-yl-ethyl)-carbamoyl]-ethylamino}-4-oxo-4H-benzo[d][1,3]oxazin-6-yl)-benzamide], the IC50 at HSV-1 protease was 2400 nM. Besides, it took 5.4 µM to reach the 90% level in the series with HSV-1 (EC90). Further, the “Cell viability (% of control)” value in the series with Vero cells came to 28.3%.

Regarding `Cc1c(NC(=O)c2ccccc2I)ccc2nc(NC(C)(C)C(=O)N(C)CCc3ccccn3)oc(=O)c12` [Compound No.155, 2-Iodo-N-(5-methyl-2-{1-methyl-1-[methyl-(2-pyridin-2-yl-ethyl)-carbamoyl]-ethylamino}-4-oxo-4H-benzo[d][1,3]oxazin-6-yl)-benzamide], the IC50 at HSV-1 protease is 1500 nM. Moreover, the EC90 in the series with HSV-1 was > 12.5 µM. Also, in the series with Vero cells, the “Cell viability (% of control)” value amounted to 69.1%.

As to `Cc1ccccc1C(=O)Nc1ccc2nc(NC(C)(C)C(=O)N(C)CCc3ccccn3)oc(=O)c2c1C` [Compound No.156, 2-Methyl-N-(5-methyl-2-{1-methyl-1-[methyl-(2-pyridin-2-yl-ethyl)-carbamoyl]-ethylamino}-4-oxo-4H-benzo[d][1,3]oxazin-6-yl)-benzamide], on HSV-1 protease, the IC50 turned out to be 3800 nM. Besides, the EC90 in the series on HSV-1 was > 12.5 µM. Further, the “Cell viability (% of control)” value in the series with Vero cells is listed as 78.0%.

For `Cc1ccc(C(=O)Nc2ccc3nc(NC(C)(C)C(=O)N(C)CCc4ccccn4)oc(=O)c3c2C)cc1` [Compound No.158, 4-Methyl-N-(5-methyl-2-{1-methyl-1-[methyl-(2-pyridin-2-yl-ethyl)-carbamoyl]-ethylamino}-4-oxo-4H-benzo[d][1,3]oxazin-6-yl)-benzamide], the 50% inhibitory concentration (IC50) at HSV-1 protease was found to be 3300 nM. The same compound came in with an EC90 with HSV-1 of 8.3 µM. Also, in the series with Vero cells, the “Cell viability (% of control)” value is reported as 63.6%.

Take `Cc1c(NC(=O)C=Cc2ccccc2)ccc2nc(NC(C)(C)C(=O)N(C)CCc3ccccn3)oc(=O)c12` [Compound No.159, N-(5-Methyl-2-{1-methyl-1-[methyl-(2-pyridin-2-yl-ethyl)-carbamoyl]-ethylamino}-4-oxo-4H-benzo[d][1,3]oxazin-6-yl)-3-phenyl-acrylamide]: the IC50 at HSV-1 protease turned out to be 1400 nM. This compound also yielded an EC90 with HSV-1 of 10.8 µM. Also, in the series on Vero cells, the “Cell viability (% of control)” value was 15.9%.

Regarding `Cc1c(NC(=O)CCC2CCCCC2)ccc2nc(NC(C)(C)C(=O)N(C)CCc3ccccn3)oc(=O)c12` [Compound No.160, 2-[6-(3-Cyclohexyl-propionylamino)-5-methyl-4-oxo-4H-benzo[d][1,3]oxazin-2-ylamino]-2,N-dimethyl-N-(2-pyridin-2-yl-ethyl)-propionamide], the IC50 on HSV-1 protease is 1100 nM. In the series on HSV-1, this compound displayed an EC90 of 11.3 µM. In addition, in the series with Vero cells, the “Cell viability (% of control)” value came out at 13.0%.

Consider `COc1ccccc1C(=O)Nc1ccc2nc(NC(C)(C)C(=O)N(C)CCc3ccccn3)oc(=O)c2c1C` [Compound No.161, 2-Methoxy-N-(5-methyl-2-{1-methyl-1-[methyl-(2-pyridin-2-yl-ethyl)-carbamoyl]-ethylamino}-4-oxo-4H-benzo[d][1,3]oxazin-6-yl)-benzamide], for which the IC50 at HSV-1 protease turned out to be 2800 nM. Besides, in the series with HSV-1, the EC90 came to 11.4 µM. Further, the “Cell viability (% of control)” value in the series with Vero cells is 44.1%.

Take `COc1cccc(C(=O)Nc2ccc3nc(NC(C)(C)C(=O)N(C)CCc4ccccn4)oc(=O)c3c2C)c1` [Compound No.162, 3-Methoxy-N-(5-methyl-2-{1-methyl-1-[methyl-(2-pyridin-2-yl-ethyl)-carbamoyl]-ethylamino}-4-oxo-4H-benzo[d][1,3]oxazin-6-yl)-benzamide]: at HSV-1 protease, the IC50 is 1800 nM. The EC90 with HSV-1 is 10.2 µM. Further, the “Cell viability (% of control)” value in the series on Vero cells is recorded as 75.5%.

As to `COc1ccc(C(=O)Nc2ccc3nc(NC(C)(C)C(=O)N(C)CCc4ccccn4)oc(=O)c3c2C)cc1` [Compound No.163, 4-Methoxy-N-(5-methyl-2-{1-methyl-1-[methyl-(2-pyridin-2-yl-ethyl)-carbamoyl]-ethylamino}-4-oxo-4H-benzo[d][1,3]oxazin-6-yl)-benzamide], the 50% inhibitory concentration (IC50) at HSV-1 protease was 1300 nM. Besides, it took 10.7 µM to reach the 90% level in the series with HSV-1 (EC90). The “Cell viability (% of control)” value in the series with Vero cells is listed as 66.0%.

`CCOc1ccc(C(=O)Nc2ccc3nc(NC(C)(C)C(=O)N(C)CCc4ccccn4)oc(=O)c3c2C)cc1` [Compound No.164, 4-Ethoxy-N-(5-methyl-2-{1-methyl-1-[methyl-(2-pyridin-2-yl-ethyl)-carbamoyl]-ethylamino}-4-oxo-4H-benzo[d][1,3]oxazin-6-yl)-benzamide]: at HSV-1 protease, the IC50 turned out to be 1400 nM. The compound further had an EC90 in the series with HSV-1 of 6.2 µM. Further, in the series with Vero cells, the “Cell viability (% of control)” value was 47.7%.

For `CCCCOc1ccc(C(=O)Nc2ccc3nc(NC(C)(C)C(=O)N(C)CCc4ccccn4)oc(=O)c3c2C)cc1` [Compound No.165, 4-Butoxy-N-(5-methyl-2-{1-methyl-1-[methyl-(2-pyridin-2-yl-ethyl)-carbamoyl]-ethylamino}-4-oxo-4H-benzo[d][1,3]oxazin-6-yl)-benzamide], the IC50 on HSV-1 protease worked out at 2000 nM. This compound displayed a 90% effect concentration (EC90) in the series with HSV-1 of 3.6 µM. For the same compound, the “Cell viability (% of control)” value in the series on Vero cells amounted to 16.9%.

As for `CCCc1ccc(C(=O)Nc2ccc3nc(NC(C)(C)C(=O)N(C)CCc4ccccn4)oc(=O)c3c2C)cc1` [Compound No.166, N-(5-Methyl-2-{1-methyl-1-[methyl-(2-pyridin-2-yl-ethyl)-carbamoyl]-ethylamino}-4-oxo-4H-benzo[d][1,3]oxazin-6-yl)-4-propyl-benzamide], the IC50 at HSV-1 protease turned out to be 1200 nM. In the series with HSV-1, this compound had an EC90 of 5.8 µM. Moreover, the “Cell viability (% of control)” value in the series with Vero cells came to 15.9%.

Take `CCCCc1ccc(C(=O)Nc2ccc3nc(NC(C)(C)C(=O)N(C)CCc4ccccn4)oc(=O)c3c2C)cc1` [Compound No.167, 4-Butyl-N-(5-methyl-2-{1-methyl-1-[methyl-(2-pyridin-2-yl-ethyl)-carbamoyl]-ethylamino}-4-oxo-4H-benzo[d][1,3]oxazin-6-yl)-benzamide]: the IC50 at HSV-1 protease came out at 1700 nM. The 90% effect level in the series with HSV-1 (EC90) was put at 3.6 µM. In addition, the “Cell viability (% of control)” value in the series on Vero cells was −6.1%.
